# Source: US20190269702A1, “COMPOSITIONS AND METHODS FOR TREATING NONINFECTIOUS UVEITIS” (CLEARSIDE BIOMEDICAL, INC., priority 2018, published 2019)
# System: treatment-naïve DME eyes
# Type: in vivo, human
# Protocol: A study was conducted to evaluate suprachoroidal CLS-TA in combination with intravitreal aflibercept, compared to aflibercept monotherapy for DME. SCS injections target chorioretinal tissues more directly than intravitreal injections while limiting exposure to the anterior chamber, thereby offering potential safety, efficacy, and durability advantages. The study was a Phase 2, multicenter, randomized, double-masked, controlled, 24-week study in treatment-naïve DME eyes (eligibility: CST >300 μm; 20-70 ETDRS letters) randomized 1:1 to CLS-TA+aflibercept or aflibercept monotherapy. Patients in the combination arm (n=36) received CLS-TA and aflibercept at baseline & week 12 ([…]). Patients in the monotherapy arm (n=35) received aflibercept at baseline, W4, W8 and […]. […] The study is referred to as the TYBEE study in some embodiments herein.
substance,measurement,setting,value
aflibercept,eyes with macular edema resolved (<300 μm),W4,21%
same,mean CST change,W24,−176 μm
same,gain in BCVA letters from baseline,"W24, per protocol arms",+13.5 letters
same,mean PRN aflibercept treatments,at W16 & W20,0.7
same,cataract observed,in vivo,2.9%
same,elevated IOP observed,in vivo,2.9%
same,treatment-related serious AEs,in vivo,No treatment-related serious AEs were observed
same,average number of treatments,through week 24,4.7
